This assay concerns the target CDK4 (Homo sapiens, UniProt P11802+Q16531). Nature of the assay: HiBiT detection of HiBiT-tagged CDK4 protein level in MCF7 cells, 16 hours (Table 8). Format: cell-based. Also noted: expressed in transfected cells; host or cells: MCF7. The settings on record: MCF7 cells stably expressing HiBiT tagged target proteins; for activity at 0.01 µM: 10 nM, read-out: % CDK4 Relative Level (10 nM); for activity at 0.1 µM: 100 nM, read-out: % CDK4 Relative Level (100 nM). The method, then:
HiBiT detection system quantitatively measures total amounts of HiBiT-tagged proteins using a luminescent based method. MCF7 cells stably expressing HiBiT tagged target proteins were treated with heterobifunctional compounds at indicated concentrations for 16 hours, then lysed with Nano-Glo HiBiT Lytic detection reagents.

The structures appear in SMILES notation. Where only a bound is given, the exact number is not on record here.

Chain of CDK4 (P11802 whole entry): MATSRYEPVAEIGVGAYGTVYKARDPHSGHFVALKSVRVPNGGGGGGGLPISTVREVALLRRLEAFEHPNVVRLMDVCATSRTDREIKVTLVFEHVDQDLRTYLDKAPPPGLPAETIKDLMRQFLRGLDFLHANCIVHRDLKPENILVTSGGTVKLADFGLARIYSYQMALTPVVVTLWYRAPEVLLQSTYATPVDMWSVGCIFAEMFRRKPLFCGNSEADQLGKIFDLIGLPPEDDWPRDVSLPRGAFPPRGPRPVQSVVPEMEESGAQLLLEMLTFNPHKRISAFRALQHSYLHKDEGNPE
Chain of CDK4 (P24385 whole entry partner): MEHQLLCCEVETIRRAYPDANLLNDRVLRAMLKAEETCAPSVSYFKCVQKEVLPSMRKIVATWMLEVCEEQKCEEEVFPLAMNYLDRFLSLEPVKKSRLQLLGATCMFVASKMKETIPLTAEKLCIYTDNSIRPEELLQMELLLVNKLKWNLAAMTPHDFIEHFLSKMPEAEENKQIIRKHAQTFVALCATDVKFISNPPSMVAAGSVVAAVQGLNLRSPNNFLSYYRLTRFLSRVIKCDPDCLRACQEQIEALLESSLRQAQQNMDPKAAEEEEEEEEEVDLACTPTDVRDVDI
Chain of CDK4 (Q16531 2-1140 limits assumed): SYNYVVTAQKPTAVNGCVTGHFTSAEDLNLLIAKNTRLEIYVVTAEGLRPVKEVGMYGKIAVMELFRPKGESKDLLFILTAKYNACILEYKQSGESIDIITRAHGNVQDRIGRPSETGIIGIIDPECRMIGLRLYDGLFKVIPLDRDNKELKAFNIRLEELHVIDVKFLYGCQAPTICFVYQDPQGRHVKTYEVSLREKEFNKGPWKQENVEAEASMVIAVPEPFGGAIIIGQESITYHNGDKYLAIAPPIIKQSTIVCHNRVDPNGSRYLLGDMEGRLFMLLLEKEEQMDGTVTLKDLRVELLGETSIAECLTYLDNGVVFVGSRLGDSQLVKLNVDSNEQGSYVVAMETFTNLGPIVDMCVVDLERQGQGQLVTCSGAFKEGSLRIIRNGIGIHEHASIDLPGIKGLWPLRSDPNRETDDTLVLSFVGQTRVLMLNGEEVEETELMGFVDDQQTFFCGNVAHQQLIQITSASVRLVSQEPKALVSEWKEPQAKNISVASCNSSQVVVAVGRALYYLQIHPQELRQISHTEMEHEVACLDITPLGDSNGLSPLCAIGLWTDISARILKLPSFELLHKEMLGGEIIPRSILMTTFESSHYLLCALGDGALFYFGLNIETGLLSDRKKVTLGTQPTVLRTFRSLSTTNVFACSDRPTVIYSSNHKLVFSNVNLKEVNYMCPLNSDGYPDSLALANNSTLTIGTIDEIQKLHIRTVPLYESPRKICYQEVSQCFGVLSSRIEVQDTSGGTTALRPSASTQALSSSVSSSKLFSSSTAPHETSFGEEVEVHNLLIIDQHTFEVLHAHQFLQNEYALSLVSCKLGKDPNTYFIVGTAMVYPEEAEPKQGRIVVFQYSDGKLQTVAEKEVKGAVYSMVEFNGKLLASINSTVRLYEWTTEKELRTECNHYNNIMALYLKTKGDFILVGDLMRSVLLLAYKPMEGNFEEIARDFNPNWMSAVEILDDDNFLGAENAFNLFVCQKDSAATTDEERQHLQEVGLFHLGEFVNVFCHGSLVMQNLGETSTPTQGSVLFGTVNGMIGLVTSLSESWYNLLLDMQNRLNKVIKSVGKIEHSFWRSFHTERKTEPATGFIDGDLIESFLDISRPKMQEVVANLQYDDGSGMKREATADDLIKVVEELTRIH

Consider `CNc1ccc(C(=O)Nc2ccc(N(C)C)nn2)c(NCCOCCNC(=O)CN2CCN(c3ccc(Nc4ncc5cc(C(=O)N(C)C)n(C6CCCC6)c5n4)nc3)CC2)n1` [CPD-631, 7-cyclopentyl-2-((5-(4-(2-((2-(2-((3-((6-(dimethylamino)pyridazin-3-yl)carbamoyl)-6-(methylamino)pyridin-2-yl)amino)ethoxy)ethyl)amino)-2-oxoethyl)piperazin-1-yl)pyridin-2-yl)amino)-N,N-dimethyl-7H-pyrrolo[2,3-d]pyrimidine-6-carboxamide], for which the activity at 0.01 µM was greater than 85% and the activity at 0.1 µM was greater than 85%.

As to `CNc1ccc(C(=O)Nc2ccc(N(C)C)nn2)c(NCCC(=O)N2CCN(c3ccc(Nc4ncc5cc6n(c5n4)C4(CCCCC4)CNC6=O)nc3)CC2)n1` [CPD-632, N-(6-(dimethylamino)pyridazin-3-yl)-6-(methylamino)-2-((3-oxo-3-(4-(6-((6′-oxo-7′,8′-dihydro-6′H-spiro[cyclohexane-1,9′-pyrazino[1′,2′:1,5]pyrrolo[2,3-d]pyrimidin]-2′-yl)amino)pyridin-3-yl)piperazin-1-yl)propyl)amino)nicotinamide], the activity at 0.01 µM was greater than 85% and the activity at 0.1 µM is greater than 85%.

In the case of `CNc1ccc(C(=O)Nc2ccc(N(C)C)nn2)c(NCCCCCCCC(=O)N2CCN(c3ccc(Nc4ncc5cc6n(c5n4)C4(CCCCC4)CNC6=O)nc3)CC2)n1` [CPD-637, N-(6-(dimethylamino)pyridazin-3-yl)-6-(methylamino)-2-((8-oxo-8-(4-(6-((6′-oxo-7′,8′-dihydro-6′H-spiro[cyclohexane-1,9′-pyrazino[1′,2′:1,5]pyrrolo[2,3-d]pyrimidin]-2′-yl)amino)pyridin-3-yl)piperazin-1-yl)octyl)amino)nicotinamide], the activity at 0.01 µM was greater than 85% and the activity at 0.1 µM was greater than 85%.

For the compound `CNc1ccc(C(=O)Nc2ccc(N(C)C)nn2)c(NCCOCCC(=O)N2CCN(c3ccc(Nc4ncc5cc6n(c5n4)C4(CCCCC4)CNC6=O)nc3)CC2)n1` [CPD-638], the activity at 0.01 µM was greater than 85% and the activity at 0.1 µM was greater than 85%.

On to `CNc1ccc(C(=O)Nc2ccc(N(C)C)nn2)c(NCCNC(=O)CN2CCN(c3ccc(Nc4ncc5cc6n(c5n4)C4(CCCCC4)CNC6=O)nc3)CC2)n1` [CPD-640, N-(6-(dimethylamino)pyridazin-3-yl)-6-(methylamino)-2-((2-(2-(4-(6-((6′-oxo-7′,8′-dihydro-6′H-spiro[cyclohexane-1,9′-pyrazino[1′,2′:1,5]pyrrolo[2,3-d]pyrimidin]-2′-yl)amino)pyridin-3-yl)piperazin-1-yl)acetamido)ethyl)amino)nicotinamide], for which the activity at 0.01 µM is greater than 85% and the activity at 0.1 µM was 55 to 85%.

Regarding `CNc1ccc(C(=O)Nc2ccc(N(C)C)nn2)c(NCCCNC(=O)CN2CCN(c3ccc(Nc4ncc5cc6n(c5n4)C4(CCCCC4)CNC6=O)nc3)CC2)n1` [CPD-641, N-(6-(dimethylamino)pyridazin-3-yl)-6-(methylamino)-2-((3-(2-(4-(6-((6′-oxo-7′,8′-dihydro-6′H-spiro[cyclohexane-1,9′-pyrazino[1′,2′:1,5]pyrrolo[2,3-d]pyrimidin]-2′-yl)amino)pyridin-3-yl)piperazin-1-yl)acetamido)propyl)amino)nicotinamide], the activity at 0.01 µM was greater than 85% and the activity at 0.1 µM was greater than 85%.

With `CNc1ccc(C(=O)Nc2ccc(N(C)C)nn2)c(NCCOCCNC(=O)CN2CCN(c3ccc(Nc4ncc5cc6n(c5n4)C4(CCCCC4)CNC6=O)nc3)CC2)n1` [CPD-647, N-(6-(dimethylamino)pyridazin-3-yl)-6-(methylamino)-2-((2-(2-(2-(4-(6-((6′-oxo-7′,8′-dihydro-6′H-spiro[cyclohexane-1,9′-pyrazino[1′,2′:1,5]pyrrolo[2,3-d]pyrimidin]-2′-yl)amino)pyridin-3-yl)piperazin-1-yl)acetamido)ethoxy)ethyl)amino)nicotinamide], the activity at 0.01 µM is greater than 85% and the activity at 0.1 µM is greater than 85%.

Take `CNc1ccc(C(=O)Nc2ccc(N(C)C)nn2)c(NCCC(=O)N2CCN(c3ccc(Nc4ncc(F)c(-c5cc(F)c6nc(C)n(C(C)C)c6c5)n4)nc3)CC2)n1` [CPD-648, N-(6-(dimethylamino)pyridazin-3-yl)-2-((3-(4-(6-((5-fluoro-4-(4-fluoro-1-isopropyl-2-methyl-1H-benzo[d]imidazol-6-yl)pyrimidin-2-yl)amino)pyridin-3-yl)piperazin-1-yl)-3-oxopropyl)amino)-6-(methylamino)nicotinamide]: the activity at 0.01 µM was greater than 85% and the activity at 0.1 µM is greater than 85%.

For the compound `CNc1ccc(C(=O)Nc2ccc(N(C)C)nn2)c(NCCCC(=O)N2CCN(c3ccc(Nc4ncc(F)c(-c5cc(F)c6nc(C)n(C(C)C)c6c5)n4)nc3)CC2)n1` [CPD-649, N-(6-(dimethylamino)pyridazin-3-yl)-2-((4-(4-(6-((5-fluoro-4-(4-fluoro-1-isopropyl-2-methyl-1H-benzo[d]imidazol-6-yl)pyrimidin-2-yl)amino)pyridin-3-yl)piperazin-1-yl)-4-oxobutyl)amino)-6-(methylamino)nicotinamide], the activity at 0.01 µM is greater than 85% and the activity at 0.1 µM is greater than 85%.

As to `CNc1ccc(C(=O)Nc2ccc(N(C)C)nn2)c(NCCCCC(=O)N2CCN(c3ccc(Nc4ncc(F)c(-c5cc(F)c6nc(C)n(C(C)C)c6c5)n4)nc3)CC2)n1` [CPD-650, N-(6-(dimethylamino)pyridazin-3-yl)-2-((5-(4-(6-((5-fluoro-4-(4-fluoro-1-isopropyl-2-methyl-1H-benzo[d]imidazol-6-yl)pyrimidin-2-yl)amino)pyridin-3-yl)piperazin-1-yl)-5-oxopentyl)amino)-6-(methylamino)nicotinamide], the activity at 0.01 µM was greater than 85% and the activity at 0.1 µM was greater than 85%.

Consider `CNc1ccc(C(=O)Nc2ccc(N(C)C)nn2)c(NCCCCCC(=O)N2CCN(c3ccc(Nc4ncc(F)c(-c5cc(F)c6nc(C)n(C(C)C)c6c5)n4)nc3)CC2)n1` [CPD-651, N-(6-(dimethylamino)pyridazin-3-yl)-2-((6-(4-(6-((5-fluoro-4-(4-fluoro-1-isopropyl-2-methyl-1H-benzo[d]imidazol-6-yl)pyrimidin-2-yl)amino)pyridin-3-yl)piperazin-1-yl)-6-oxohexyl)amino)-6-(methylamino)nicotinamide], for which the activity at 0.01 µM is greater than 85% and the activity at 0.1 µM is greater than 85%.

With `CNc1ccc(C(=O)Nc2ccc(N(C)C)nn2)c(NCCCCCCC(=O)N2CCN(c3ccc(Nc4ncc(F)c(-c5cc(F)c6nc(C)n(C(C)C)c6c5)n4)nc3)CC2)n1` [CPD-652, N-(6-(dimethylamino)pyridazin-3-yl)-2-((7-(4-(6-((5-fluoro-4-(4-fluoro-1-isopropyl-2-methyl-1H-benzo[d]imidazol-6-yl)pyrimidin-2-yl)amino)pyridin-3-yl)piperazin-1-yl)-7-oxoheptyl)amino)-6-(methylamino)nicotinamide], the activity at 0.01 µM is greater than 85% and the activity at 0.1 µM is greater than 85%.

In the case of `CNc1ccc(C(=O)Nc2ccc(N(C)C)nn2)c(NCCCCCCCC(=O)N2CCN(c3ccc(Nc4ncc(F)c(-c5cc(F)c6nc(C)n(C(C)C)c6c5)n4)nc3)CC2)n1` [CPD-653, N-(6-(dimethylamino)pyridazin-3-yl)-2-((8-(4-(6-((5-fluoro-4-(4-fluoro-1-isopropyl-2-methyl-1H-benzo[d]imidazol-6-yl)pyrimidin-2-yl)amino)pyridin-3-yl)piperazin-1-yl)-8-oxooctyl)amino)-6-(methylamino)nicotinamide], the activity at 0.01 µM is greater than 85% and the activity at 0.1 µM was greater than 85%.

For `CNc1ccc(C(=O)Nc2ccc(N(C)C)nn2)c(NCCOCCC(=O)N2CCN(c3ccc(Nc4ncc(F)c(-c5cc(F)c6nc(C)n(C(C)C)c6c5)n4)nc3)CC2)n1` [CPD-654, N-(6-(dimethylamino)pyridazin-3-yl)-2-((2-(3-(4-(6-((5-fluoro-4-(4-fluoro-1-isopropyl-2-methyl-1H-benzo[d]imidazol-6-yl)pyrimidin-2-yl)amino)pyridin-3-yl)piperazin-1-yl)-3-oxopropoxy)ethyl)amino)-6-(methylamino)nicotinamide], the activity at 0.01 µM was greater than 85% and the activity at 0.1 µM was greater than 85%.

Turning to `CNc1ccc(C(=O)Nc2ccc(N(C)C)nn2)c(NCCOCCOCCC(=O)N2CCN(c3ccc(Nc4ncc(F)c(-c5cc(F)c6nc(C)n(C(C)C)c6c5)n4)nc3)CC2)n1` [CPD-655, N-(6-(dimethylamino)pyridazin-3-yl)-2-((2-(2-(3-(4-(6-((5-fluoro-4-(4-fluoro-1-isopropyl-2-methyl-1H-benzo[d]imidazol-6-yl)pyrimidin-2-yl)amino)pyridin-3-yl)piperazin-1-yl)-3-oxopropoxy)ethoxy)ethyl)amino)-6-(methylamino)nicotinamide], the activity at 0.01 µM was greater than 85% and the activity at 0.1 µM is greater than 85%.

`CNc1ccc(C(=O)Nc2ccc(N(C)C)nn2)c(NCC(=O)N2CCN(Cc3ccc(Nc4ncc(F)c(-c5cc(F)c6nc(C)n(C(C)C)c6c5)n4)nc3)CC2)n1` [CPD-656, N-(6-(dimethylamino)pyridazin-3-yl)-2-((2-(4-((6-((5-fluoro-4-(4-fluoro-1-isopropyl-2-methyl-1H-benzo[d]imidazol-6-yl)pyrimidin-2-yl)amino)pyridin-3-yl)methyl)piperazin-1-yl)-2-oxoethyl)amino)-6-(methylamino)nicotinamide]: the activity at 0.01 µM is greater than 85% and the activity at 0.1 µM is greater than 85%.

On to `CNc1ccc(C(=O)Nc2ccc(N(C)C)nn2)c(NCCNC(=O)CN2CCN(c3ccc(Nc4ncc(F)c(-c5cc(F)c6nc(C)n(C(C)C)c6c5)n4)nc3)CC2)n1` [CPD-658, N-(6-(dimethylamino)pyridazin-3-yl)-2-((2-(2-(4-(6-((5-fluoro-4-(4-fluoro-1-isopropyl-2-methyl-1H-benzo[d]imidazol-6-yl)pyrimidin-2-yl)amino)pyridin-3-yl)piperazin-1-yl)acetamido)ethyl)amino)-6-(methylamino)nicotinamide], for which the activity at 0.01 µM is greater than 85% and the activity at 0.1 µM is greater than 85%.

Values taken from patent US20260297081A1, “COMPOUNDS AND METHODS OF TREATING CANCERS” (Cullgen Inc., priority 2023, published 2026).
